Test system: diarrhea-predominant IBS subjects
Assay: Study S241.3.011: IBS-QOL
Assay type: in vivo, human
Conditions: for Mean change in IBS-QoL subscale Body Image / Mean change in IBS-QoL subscale Dysphoria / Mean change in IBS-QoL subscale Food Avoidance / Mean change in IBS-QoL subscale Health Worry / Mean change in IBS-QoL subscale Interference with Activity / Mean change in IBS-QoL subscale Relationship / Mean change in IBS-QoL subscale Sexual / Mean change in IBS-QoL subscale Social Reaction / Mean change in IBS-QoL, Overall: RR (four-week rerandomization) period
Excerpt: Studies S24 1.3.OO6, S24 1.3.0 1 1, and S24 1.3.009 used the following efficacy measurements: • The subjects answered the following three questions with “yes” or “no” using a phone diary at the end of each week: • a) During the last week, did you experience adequate relief of your IBS symptoms, such as abdominal pain, abdominal discomfort, abnormal bowel habits? • b) During the last week, did you experience adequate relief of your abdominal pain and/or discomfort? • c) During the last week, did you experience adequate relief of your abnormal bowel habits? • The subjects rated the following symptoms using the phone diary at the end of each day: • abdominal pain/discomfort (five-point scale); • stool consistency (seven-point Bristol Stool Scale); • stool frequency (number of bowel movements each day); • urgency (five-point scale); • straining (yes or no); • feeling of incomplete defecation (yes or no); • bloating or feeling of abdominal distension (five-point scale). • In Studies S241 A006 and S241.3.009, subjects completed the IBS-QOL Survey at Baseline (Day 1) and at the end of treatment. In Study S24 1.3.0 1 1, subjects completed the IBS-QOL Survey at Baseline (Day 1), at the end of the three-month treatment period, and at the end of rerandomized treatment.
Other secondary efficacy parameters for all three studies included: • Responder rate for the weekly diary questions on adequate relief at each month, where a responder for a month (monthly responder) was defined as a subject who answered the weekly question with “yes” at least twice for that month. The responder rate was the percentage of responders within a treatment group. The all-month responder rate for the weekly diary questions on adequate relief was also evaluated, where an all-month responder was defined as a subject who answered the weekly question with “yes” at least twice for each month. The all-month responder rate was the percentage of all-month responders within a treatment group; • Adequate relief rate for the weekly diary questions was calculated for each subject as the number of weekly assessments with adequate relief (“yes”) divided by the total number of weekly assessments; • Percentage of subjects with adequate relief for the weekly diary questions at each week; • Daily diary questions regarding abdominal pain/discomfort (five-point scale), stool consistency (seven-point scale), stool frequency (number of bowel movements each day), straining (yes or no), urgency (five-point scale), feeling of incomplete evacuation (yes or no), and bloating or feeling of abdominal distention (five-point scale); • QOL data assessed by the IBS-QOL questionnaire; and • Question to determine the interruption of activities.

`Cc1nccn1C[C@H]1CCc2c(c3cccc4c3n2CCC4)C1=O` [Cilansetron, (R)-(−)-4,5,6,8,9,10-hexahydro-10-[(2-methyl-1H-imidazol-1-yl)methyl]-11H-pyrido-[3,2,1-jk]-carbazol-11-one] was tested, and the “Overall IBS-QOL score, mean change from rerandomization Baseline” value (shortened to “Overall IBS-QOL score, mean change”) (C/C) was 0.9, the “Overall IBS-QOL score, mean change” value (C/P) was −4.9 and the “Overall IBS-QOL score, mean change” value (P/C) was 5.1. The “Mean change in IBS-QoL subscale Body Image” value (C/C group) was −0.8, the “Mean change in IBS-QoL subscale Dysphoria” value (C/C group) was “+2.2” and the “Mean change in IBS-QoL subscale Food Avoidance” value (C/C group) was “+0.6”. The “Mean change in IBS-QoL subscale Health Worry” value (C/C group) was “+0.2”, the “Mean change in IBS-QoL subscale Interference with Activity” value (“Mean change … with Activity” below) (C/C group) was “+1.4” and the “Mean change in IBS-QoL subscale Relationship” value (C/C group) was “+1.7”. For the same compound, the “Mean change in IBS-QoL subscale Sexual” value (C/C group) was −1.4, the “Mean change in IBS-QoL subscale Social Reaction” value (C/C group) was “+0.3” and the “Mean change in IBS-QoL, Overall” value (C/C group) was “+0.9”. For the same compound, the “Mean change in IBS-QoL subscale Body Image” value (C/P group) was −3.0, the “Mean change in IBS-QoL subscale Dysphoria” value (C/P group) was −6.0 and the “Mean change in IBS-QoL subscale Food Avoidance” value (C/P group) was −4.7. For the same compound, the “Mean change in IBS-QoL subscale Health Worry” value (C/P group) was −1.0, the “Mean change … with Activity” value (C/P group) was −6.4 and the “Mean change in IBS-QoL subscale Relationship” value (C/P group) was −3.0. For the same compound, the “Mean change in IBS-QoL subscale Sexual” value (C/P group) was −3.5, the “Mean change in IBS-QoL subscale Social Reaction” value (C/P group) was −5.9 and the “Mean change in IBS-QoL, Overall” value (C/P group) was −4.9. The “Mean change in IBS-QoL subscale Body Image” value (P/C group) was “+5.0”, the “Mean change in IBS-QoL subscale Dysphoria” value (P/C group) was “+1.4” and the “Mean change in IBS-QoL subscale Food Avoidance” value (P/C group) was “+7.9”. The “Mean change in IBS-QoL subscale Health Worry” value (P/C group) was “+2.1”, the “Mean change … with Activity” value (P/C group) was “+7.9” and the “Mean change in IBS-QoL subscale Relationship” value (P/C group) was “+1.4”. The “Mean change in IBS-QoL subscale Sexual” value (P/C group) was “+1.4”, the “Mean change in IBS-QoL subscale Social Reaction” value (P/C group) was “+3.8” and the “Mean change in IBS-QoL, Overall” value (P/C group) was “+5.1”. For the same compound, the “IBS-QOL body image, treatment difference” value (vs placebo) was 6.60, the “IBS-QOL dysphoria, treatment difference” value (vs placebo) was 8.16 and the “IBS-QOL food avoidance, treatment difference” value (vs placebo) was 9.64. For the same compound, the “IBS-QOL health worry, treatment difference” value (vs placebo) was 4.05, the “IBS-QOL interference with activity, treatment difference” value (vs placebo) was 10.57 and the “IBS-QOL overall score, treatment difference in mean change from Baseline at Endpoint” value (vs placebo) was 7.53. The “IBS-QOL relationships, treatment difference” value (vs placebo) was 4.72, the “IBS-QOL sexual, treatment difference” value (vs placebo) was 5.93 and the “IBS-QOL social reaction, treatment difference” value (vs placebo) was 5.53.
